From patent publication US4902699A, “Oxime of 1, 2, 5, 6-tetrahydropyridine compounds their use as medicaments and the compositions containing them” (Roussel Uclaf, priority 1987, dated 1990) come the findings set out here.

Data set [1] can be described thus: Diarrhoeic activity. Further details: species or system mice. The note with it: mouse, in vivo; oral route; dose which causes diarrhoea in 50% of the animals; read-out: DE50 (the source's name). As to the method: The test is carried out on male mice (CD1 Charles Rivers) weighing […], after fasting for 6 hours. The product dissolved at 5% in methocel is administered by oral route by means of an oesophage probe.
Control animals receive only the excipient.
After treatment, the animals are placed separately in cages of which the base is covered with blotting paper, and they are put under observation for 30, 60, 120 and 180 minutes.
The sheets of absorbent paper are changed after each observation.
The consistency of the feces is evaluated according to the method of Randall and Baruth (Arch. Int. Pharmacodyn. 220, 94, 1976) according to the following scale of values.
1: feces slightly soft, with or without a damp halo
2: feces slightly soft, with a well defined circle of humidity.
3: feces soft with a large circle of humidity.
4: feces without consistency with a very large circle of humidity.
For each product, the dose is noted which causes diarrhoea in 50% of the animals according to the method of Miller and Tainter (Proc. Soc. Exp. Biol. Med., 57, 261, 1944).

The subject of data set [2] is male mice (CD1 Charles RAivers). Put plainly: Hypothermic activity. The data set is classed as in vivo. The conditions noted are these: Mus musculus, read-out: Effective dose (-1° C.). As to the method: (§1) The test is carried out on male mice (CD1 Charles RAivers) weighing 25-30 g, having fasted for 6 hours.
The temperature of the body is noted by means of a thermocouple inserted about 1.5 cm in the rectum and connected to an electric temperature recorder.
The products are administered by oral or sub-cutaneous route and the temperatures are noted at the instant 0 and at 30 minutes, 1 hour, 2 hours and 2 and a half hours after treatment.
The degree of hypothermia is evaluated as the difference between the treated animals and the controls, and the dose necessary to reduce the body temperature by 1° C. is noted.

For data set [3] the test system is unchanged. Put plainly: Variation of the body temperature (duration of action). In kind it is in vivo. As to the method: as §1
The temperature of the body is noted by means of a thermocouple inserted about 1.5 cm in the rectum and connected to an electric temperature recorder. […]
The duration of action of the products is determined, using the doses able to reduce the temperature by 1° to 1.5° C.

Data set [4] relates to ileum isolated from guinea-pig. Description: Test of ileum isolated from guinea-pig, agonist (contracting) activity. The note with it: Cavia porcellus; negative logarithm of the dose which produces 50% of the maximum effect; read-out: pD2 (converted). The procedure:
Pieces of ileum are removed from guinea-pigs killed by decapitation. The isolated ileum is placed in 10 cm^3 of Tyrode solution at 37° C. and aerated with a mixture of oxygen (95%) and carbon dioxide gas (5%). The contractions due to the products are registered by means of a detector connected to a polygraph. The products to be tested are added at concentrations between 1.10^-3 M and 1.10^-8 M/l.
The products presenting a contracting effect are tested vis-a-vis atropine and hexamethonium in order to establish if the activity is of "muscarine" or "nicotine" type.
The agonist activity is expressed in pD2 (negative logarithm of the dose which produces 50% of the maximum effect).

The nature of data set [5]: Acute toxicity, oral. Also noted: species or system mice. The note with it: mouse, in vivo, mortality during 7 days.
Protocol: The test was carried out on male mice (CD1 Charles Rivers), of 22 to 24 g, having fasted for 16 hours. […] The mortality is noted during the 7 days following the treatment.

Read-outs that look alike come from different tables or passages of the source. Some results are limits rather than exact numbers.

In general, LD50 refers to the dose at which mortality reaches 50%. A higher LD50 goes with lower toxicity. On to `CCCNC(=O)ON1CCC=C(C=NOC)C1` [Example 10, Methyl ether of 1-propyl aminocarbonyloxy-1,2,5,6-tetrahydropyridin-3-carboxyaldehyde oxime], for which the ED50 in data set [1] was determined as 20 mg/kg. Moreover, the ED (-1 C) in data set [2] (O.R. (oral route)) was found to be 1.4 mg/kg; in data set [2] (SC.R (sub-cutaneous route)), 1.3 mg/kg. The “Variations of the body temperature” value in data set [3] (os, 1.56 mg/kg, 30 min) is -1.2 °C; in data set [3] (os, 1.56 mg/kg, 60 min) it was -1.0 °C; in data set [3] (os, 1.56 mg/kg, 120 min), -0.1 °C; in data set [3] (os, 1.56 mg/kg, 180 min), “+0.1 °C”; in data set [3] (sc, 1.56 mg/kg, 30 min) it was -1.2 °C; in data set [3] (sc, 1.56 mg/kg, 60 min), -1.1 °C. The “Variations of the body temperature” value in data set [3] (sc, 1.56 mg/kg, 180 min) was “+0.1 °C”. In data set [4], the EC50 was above 100 µM. The 50% lethal dose (LD50) at 168 h in data set [5] was found to be 125 mg/kg.

For `CON=CC1=CCCN(OC(=O)Nc2ccccc2)C1` [Example 13, Methyl ether of 1-phenylaminocarbonyloxy 1,2,5,6-tetrahydropyridin-3-carboxaldehyde oxime], the ED50 in data set [1] is 5 mg/kg. In addition, the results for the ED (-1 C) in data set [2] (O.R. (oral route)) and in data set [2] (SC.R (sub-cutaneous route)) were 0.74 mg/kg and 0.43 mg/kg, respectively. Besides, the “Variations of the body temperature” value is -1.4 °C in data set [3] (os, 1. mg/kg, 30 min); -1.1 °C in data set [3] (os, 1. mg/kg, 60 min); -0.1 °C in data set [3] (os, 1. mg/kg, 120 min); “+0. °C” in data set [3] (os, 1. mg/kg, 180 min); -1.2 °C in data set [3] (sc, 0.5 mg/kg, 30 min); -1.2 °C in data set [3] (sc, 0.5 mg/kg, 60 min). In addition, the “Variations of the body temperature” value in data set [3] (sc, 0.5 mg/kg, 120 min) is -0.1 °C. In addition, the EC50 in data set [4] was above 100 µM. Also, the LD50 at 168 h in data set [5] is 250 mg/kg.

Regarding `CON=CC1=CCCN(OC(=O)Nc2ccc(Cl)cc2)C1` [Example 14, Methyl ether of 1-(4-chlorophenylaminocarbonyloxy)-1,2,5,6-tetrahydropyridin-3-carboxaldehyde oxime], in data set [1], the ED50 stood at 10 mg/kg. The ED (-1 C) in data set [2] (O.R. (oral route)) and in data set [2] (SC.R (sub-cutaneous route)) was 1.8 mg/kg throughout. Further, the “Variations of the body temperature” value in data set [3] (os, 2.5 mg/kg, 30 min) is -1.3 °C; in data set [3] (os, 2.5 mg/kg, 60 min), -1.5 °C; in data set [3] (os, 2.5 mg/kg, 120 min), -0.3 °C; in data set [3] (os, 2.5 mg/kg, 180 min), “+0.1 °C”; in data set [3] (sc, 2.5 mg/kg, 30 min), -0.4 °C; in data set [3] (sc, 2.5 mg/kg, 60 min), -1.5 °C. The “Variations of the body temperature” value in data set [3] (sc, 2.5 mg/kg, 120 min) is -1.3 °C; in data set [3] (sc, 2.5 mg/kg, 180 min), -0.2 °C. In data set [4], the EC50 is above 100 µM. The compound also gave an LD50 at 168 h in data set [5] above 1000 mg/kg.

As for `CON=CC1=CCCN(OC(=O)Nc2ccc(C(C)C)cc2)C1` [Example 15, Methyl ether of 1-(4-isopropylphenylaminocarbonyloxy) 1,2,5,6-tetrahydropyridin-3-carboxaldehyde oxime], the ED50 in data set [1] amounted to 20 mg/kg. The ED (-1 C) in data set [2] (O.R. (oral route)) was found to be 1.9 mg/kg; in data set [2] (SC.R (sub-cutaneous route)), 2.4 mg/kg. Moreover, the “Variations of the body temperature” value in data set [3] (os, 2. mg/kg, 30 min) was -0.8 °C; in data set [3] (os, 2. mg/kg, 60 min), -1.0 °C; in data set [3] (os, 2. mg/kg, 120 min), “+0. °C”; in data set [3] (os, 2. mg/kg, 180 min) it was “+0.1 °C”; in data set [3] (sc, 4. mg/kg, 30 min), -0.5 °C; in data set [3] (sc, 4. mg/kg, 60 min) it was -1.5 °C. For the same compound, the “Variations of the body temperature” value in data set [3] (sc, 4. mg/kg, 120 min) is -1.5 °C; in data set [3] (sc, 4. mg/kg, 180 min), -0.3 °C. Also, the EC50 in data set [4] was above 100 µM. This compound also yielded an LD50 at 168 h in data set [5] of 350 mg/kg.
